Tested on: skin of colored guinea pigs having melanin pigment-producing cells
Test: Dermal regeneration enhancing action of liquid crystal versus its constituting components on guinea pig skin (Example 4)
Type: in vivo, guinea pigs (Weiser Maples)
Settings: 30 mg on 2 cm×2 cm shaved back; each sample solely applied
Protocol: Back of colored guinea pigs having melanin pigment-producing cells (Weiser Maples; six weeks age; male) was shaved, the shaved part was washed with lukewarm water and 30 mg of the above lyotropic liquid crystal was applied to an area of 2 cm×5 cm thereof. After 2 days from the application date under irradiation with any of UVA, UVB and UVA+UVB, skin of the part to which the lyotropic liquid crystal was applied was collected and the slice was fixed with formalin, embedded in paraffin and stained by a Fontana-Masson method where melanin pigment was stained out in black to evaluate the dermal regeneration enhancing action.
Back of colored guinea pigs having melanin pigment-producing cells (Weiser Maples, five weeks age, male) was shaved, the shaved part was washed with lukewarm water, each 30 mg of the four kinds of samples of the lyotropic crystal of (A) of Example 1 and the constituting components thereof—surfactant, oil and polyhydric alcohol—was applied to an area of 2 cm×2 cm thereof and the dermal regeneration enhancing action was evaluated by the method mentioned in (A) of Example 1. Cross-sectional pictures of the skin to which each of the samples was applied are shown in FIG. 6 together with the cross-sectional picture of the skin to which nothing was applied.

Structure (SMILES)	dermal regeneration enhancing action
CC(C)CCCC(C)CCCC(C)CCCCC(C)CCCC(C)CCCC(C)C (centres unmarked) [oil, squalane]	no dermal regeneration enhancing action was noted
OCC(O)CO [polyhydric alcohol, glycerol]	no dermal regeneration enhancing action was noted

Reference: patent US20100305215A1, “DERMAL REGENERATION ENHANCER” (JAPAN SCIENCE AND TECHNOLOGY AGENCY, priority 2005, published 2010)
